Ends that are not written are not given here.

For assay [1], the system named is systemic allergic disease. To be noted: after injection by the subcutaneous route; cited from earlier work.
In assay [2] the test system is local cutaneous allergic reaction (Prausnitz-Kustner). To be noted: Hamburger 1975; cited from earlier work.
Assay [3] deals with T1, IgE Fc receptor of human basophils (Homo sapiens, UniProt P12319).
T1 construct: host or cells: human basophils
T1 sequence (P12319 26-257): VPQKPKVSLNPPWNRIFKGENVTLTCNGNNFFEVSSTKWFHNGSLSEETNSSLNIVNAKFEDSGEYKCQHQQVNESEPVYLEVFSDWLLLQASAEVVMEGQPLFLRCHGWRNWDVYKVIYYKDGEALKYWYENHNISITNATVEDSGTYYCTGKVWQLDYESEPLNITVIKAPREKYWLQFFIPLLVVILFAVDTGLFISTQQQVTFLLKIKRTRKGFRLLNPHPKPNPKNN
T1 sequence (Q01362 1-244 partner): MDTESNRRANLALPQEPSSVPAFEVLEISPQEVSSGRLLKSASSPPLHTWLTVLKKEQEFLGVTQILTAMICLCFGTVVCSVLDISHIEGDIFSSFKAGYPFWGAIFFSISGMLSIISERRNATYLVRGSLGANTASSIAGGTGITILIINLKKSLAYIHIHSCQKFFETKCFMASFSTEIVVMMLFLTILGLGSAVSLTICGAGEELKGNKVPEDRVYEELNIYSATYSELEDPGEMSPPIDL
T1 sequence (P30273 19-86 partner): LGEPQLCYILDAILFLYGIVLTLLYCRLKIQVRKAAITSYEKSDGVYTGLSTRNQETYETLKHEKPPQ
The conditions noted are these: Plummer et al. 1983; cited from earlier work.

The target in the next assay is C1 (Homo sapiens, UniProt P02745+P02746+P02747). The conditions noted are these: Prystowsky et al. 1981, Lukas et al. 1981; cited from earlier work.
Chain of C1 (P02745 23-245): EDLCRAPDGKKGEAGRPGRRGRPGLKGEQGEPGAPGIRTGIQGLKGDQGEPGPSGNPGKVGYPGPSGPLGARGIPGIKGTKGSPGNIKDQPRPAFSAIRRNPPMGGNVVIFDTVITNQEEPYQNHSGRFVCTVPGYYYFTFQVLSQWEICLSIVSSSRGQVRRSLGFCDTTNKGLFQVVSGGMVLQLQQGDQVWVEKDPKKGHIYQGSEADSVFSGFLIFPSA
Chain of C1 (P02746 28-253): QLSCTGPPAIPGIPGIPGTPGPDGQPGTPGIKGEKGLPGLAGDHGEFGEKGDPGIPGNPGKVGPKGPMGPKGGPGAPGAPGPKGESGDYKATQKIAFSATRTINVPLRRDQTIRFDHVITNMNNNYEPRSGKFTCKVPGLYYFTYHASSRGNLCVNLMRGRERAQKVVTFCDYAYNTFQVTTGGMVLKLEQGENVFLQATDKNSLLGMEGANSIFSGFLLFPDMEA
Chain of C1 (P02747 29-245): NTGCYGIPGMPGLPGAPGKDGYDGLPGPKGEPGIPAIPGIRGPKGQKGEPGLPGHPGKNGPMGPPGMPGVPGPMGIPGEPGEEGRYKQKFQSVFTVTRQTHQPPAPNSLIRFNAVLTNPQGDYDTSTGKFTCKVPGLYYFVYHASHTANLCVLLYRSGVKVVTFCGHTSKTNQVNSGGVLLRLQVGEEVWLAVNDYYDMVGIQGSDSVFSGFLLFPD
Chain of C1 (P00736 18-705 partner): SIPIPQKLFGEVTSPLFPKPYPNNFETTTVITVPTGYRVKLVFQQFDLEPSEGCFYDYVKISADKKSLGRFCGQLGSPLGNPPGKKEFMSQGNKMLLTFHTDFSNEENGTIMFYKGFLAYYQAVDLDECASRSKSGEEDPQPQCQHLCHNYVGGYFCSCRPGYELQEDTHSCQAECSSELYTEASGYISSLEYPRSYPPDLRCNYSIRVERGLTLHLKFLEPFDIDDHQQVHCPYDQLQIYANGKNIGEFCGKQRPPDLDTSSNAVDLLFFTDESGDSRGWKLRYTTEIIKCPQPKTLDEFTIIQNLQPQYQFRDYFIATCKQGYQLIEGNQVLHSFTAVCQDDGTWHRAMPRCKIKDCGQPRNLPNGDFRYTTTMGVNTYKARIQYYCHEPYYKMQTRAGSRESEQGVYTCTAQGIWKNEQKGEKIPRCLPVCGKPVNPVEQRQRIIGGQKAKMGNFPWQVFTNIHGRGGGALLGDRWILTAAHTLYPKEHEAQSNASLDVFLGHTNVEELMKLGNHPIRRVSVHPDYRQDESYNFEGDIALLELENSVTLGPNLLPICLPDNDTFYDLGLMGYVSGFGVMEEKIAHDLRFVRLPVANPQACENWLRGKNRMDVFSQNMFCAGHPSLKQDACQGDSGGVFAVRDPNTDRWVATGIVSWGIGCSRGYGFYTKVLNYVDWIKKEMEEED
Chain of C1 (P09871 16-688 partner): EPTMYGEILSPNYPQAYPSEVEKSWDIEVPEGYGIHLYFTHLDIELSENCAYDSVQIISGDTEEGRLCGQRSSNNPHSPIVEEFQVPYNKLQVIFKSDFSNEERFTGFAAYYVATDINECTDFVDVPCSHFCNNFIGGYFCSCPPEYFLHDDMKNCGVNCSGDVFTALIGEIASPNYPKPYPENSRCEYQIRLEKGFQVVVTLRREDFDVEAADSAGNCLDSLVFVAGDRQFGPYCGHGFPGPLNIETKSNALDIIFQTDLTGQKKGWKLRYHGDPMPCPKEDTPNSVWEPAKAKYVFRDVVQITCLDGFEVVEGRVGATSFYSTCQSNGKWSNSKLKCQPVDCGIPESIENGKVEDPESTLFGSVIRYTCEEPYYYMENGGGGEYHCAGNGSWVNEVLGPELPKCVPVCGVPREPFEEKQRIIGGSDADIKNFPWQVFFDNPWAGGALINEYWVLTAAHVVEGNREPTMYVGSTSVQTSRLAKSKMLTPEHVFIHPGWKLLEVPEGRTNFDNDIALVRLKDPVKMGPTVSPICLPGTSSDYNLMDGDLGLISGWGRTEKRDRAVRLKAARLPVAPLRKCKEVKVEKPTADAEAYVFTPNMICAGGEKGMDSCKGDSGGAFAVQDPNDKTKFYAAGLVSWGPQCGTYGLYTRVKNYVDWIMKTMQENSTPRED
Another assay concerns lymphocytes. The conditions noted are these: Morgan, Huguli and Weigle 1982; cited from earlier work.
In assay [4] the test system is human and rodent mast cells. The conditions noted are these: Stanworth et al. 1979; cited from earlier work.
Assay [5] concerns macrophage IgG Fc receptors of mice. To be noted: Stanworth 1982; cited from earlier work.
Assay [6] relates to human monocyte IgG Fc receptors. The conditions noted are these: literature (Ciccimarra 1975; Stanworth 1982; Ratcliffe and Stanworth 1982); Tuftsin also 'ourselves'; cited from earlier work.
Assay [7] deals with granulocytes, monocytes and macrophages. The conditions noted are these: in vitro; literature; cited from earlier work.
Assay [8] concerns the target T2, MONOCYTE/MACROPHAGE Fc Receptor IgE (Homo sapiens, UniProt P06734).
T2 construct: the cells expressing surface Fc receptors formed rosettes; endogenous in cells; host or cells: fresh human monocytes or U937
T2 sequence (P06734 1-321): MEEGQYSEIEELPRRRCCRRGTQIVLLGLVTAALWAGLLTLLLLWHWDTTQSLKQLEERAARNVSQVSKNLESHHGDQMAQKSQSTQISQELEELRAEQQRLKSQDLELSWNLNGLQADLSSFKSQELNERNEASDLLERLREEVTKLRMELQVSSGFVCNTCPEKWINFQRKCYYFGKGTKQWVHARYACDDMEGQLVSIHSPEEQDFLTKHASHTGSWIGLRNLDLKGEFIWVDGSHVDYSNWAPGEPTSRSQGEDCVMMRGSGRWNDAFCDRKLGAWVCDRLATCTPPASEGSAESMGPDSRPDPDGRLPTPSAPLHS
Kind of assay: Rosette inhibition assay, monocyte/macrophage IgE Fc receptor. Type of assay: binding. The conditions noted are these: human monocytes or U937; relative to intact monomeric myeloma IgE at equal concentration; NS = not significantly different from 0. How it is done: (§1) The Fc receptor blocking activity of the subject peptides was assessed using well established techniques and procedures. In particular, a rosette assay was employed which uses either monomeric, chemically or heat aggregated human IgG or IgE obtained from human myeloma sera. (Gonzalez-Molina, et al., J. Clin. Invest., 59, 616 (1977); Spiegelberg, et al. in Immunoassays: Clinical Laboratory Techniques for the 1980's (Alan R. Liss: New York, 1980), pp. 287-300). The IgG or IgE is then adsorbed to ox-erythrocytes which has been previously treated with trypsin and pyruvic aldehyde. Fresh human cell PMNs, monocytes and basophils from a patient with basophilic chronic myelogenous leukemia or human cell lines (RPMI-8866, and Daudi for lymphocyte Fc receptors and U937 for monocyte/macrophage Fc receptors) were then incubated in the presence or absence of inhibitors (monomeric IgG or IgE or peptides) at equal concentrations for fifteen minutes before addition of the indicator oxerythrocytes. In the absence of inhibitors, the cells expressing surface Fc receptors formed rosettes, clusters of three or more indicator erythrocytes that bound to the cells by virtue of exposed Fc regions on the erythrocyte surface. Addition of inhibitor myeloma proteins or inhibitor peptides produced a reproducable reduction of rosette formation, […], phosphate buffered isotonic saline, was used alone as control and then multiplying the calculated quotient by 100.
(§2) Table 1 presents the inhibition observed by representative peptide inhibitors calculated as a percentage of the inhibition observed with intact, monomeric myeloma proteins. Thus, 50 percent inhibition implys that the peptide was 50% as inhibitory as the intact myeloma protein to which it was compared.

Assay [9] deals with T3, LYMPHOCYTE Fc Receptor IgG (Homo sapiens, UniProt P31994).
T3 construct: the cells expressing surface Fc receptors formed rosettes; endogenous in cells; host or cells: RPMI-8866 / Daudi
T3 sequence (P31994 43-310): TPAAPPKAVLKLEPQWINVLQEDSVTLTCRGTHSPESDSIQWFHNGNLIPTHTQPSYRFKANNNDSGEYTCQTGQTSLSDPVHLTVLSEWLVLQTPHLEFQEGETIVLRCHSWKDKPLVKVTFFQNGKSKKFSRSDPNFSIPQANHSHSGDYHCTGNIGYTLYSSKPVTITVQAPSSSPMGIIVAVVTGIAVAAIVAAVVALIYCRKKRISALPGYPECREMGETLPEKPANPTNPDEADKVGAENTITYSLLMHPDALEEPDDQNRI
Briefly: Rosette inhibition assay, lymphocyte IgG Fc receptor. Type of assay: binding. To be noted: RPMI-8866 and Daudi cell lines; relative to intact monomeric myeloma IgG at equal concentration; NS = not significantly different from 0. As to the method:
as §1, §2

Assay [10] concerns the target T4, LYMPHOCYTE Fc Receptor IgE (Homo sapiens, UniProt P06734).
T4 construct: the cells expressing surface Fc receptors formed rosettes; endogenous in cells; host or cells: RPMI-8866 / Daudi
T4 sequence (P06734 1-321): T2 sequence (P06734 1-321)
Briefly: Rosette inhibition assay, lymphocyte IgE Fc receptor. Type of assay: binding. The conditions noted are these: RPMI-8866 and Daudi cell lines; relative to intact monomeric myeloma IgE at equal concentration; NS = not significantly different from 0. How it is done:
as §1, §2

The target in the next assay is T5, BASOPHIL Fc Receptor IgE (Homo sapiens, UniProt P12319).
T5 construct: the cells expressing surface Fc receptors formed rosettes; endogenous in cells; host or cells: basophils of a patient with basophilic chronic myelogenous leukemia
T5 sequence (P12319 26-257): T1 sequence (P12319 26-257)
T5 sequence (Q01362 1-244 partner): T1 sequence (Q01362 1-244 partner)
T5 sequence (P30273 19-86 partner): T1 sequence (P30273 19-86 partner)
Kind of assay: Rosette inhibition assay, basophil IgE Fc receptor. The assay is classed as binding. The conditions noted are these: basophils from a patient with basophilic chronic myelogenous leukemia; relative to monomeric myeloma IgE; NS = not significantly different from 0. As to the method: as §1, §2

As to “Asp-Ser-Asp-Pro-Arg (DSDPR; printed: Asp-Ser-Asp-Pro-Arg)”, the “effect on systemic allergic disease in humans” value in [1] was “inhibit systemic allergic disease”. Moreover, in [2], the “inhibition of local cutaneous allergic reaction (Prausnitz-Kustner)” value is given as “approximately 90%”. Also, the “block of human IgE binding to basophil IgE Fc receptors” value in assay [3] is reported as “up to 70%”. Take Ac-Phe-Asn-Trp-Tyr-Val (Ac-FNWYV): in the assay with C1, the “inhibition of C1-mediated hemolysis” value was “less active”.

Turning to TISKAKGQPREPQVYTLPSREEM, in the assay on lymphocytes, the “nonspecific activation of lymphocytes” value was “induce polyclonal B cell proliferation, antigen-specific antibody responses and Natural Killer (NK) cell-mediated lysis”. With PRKTKGSGFFVF, the “degranulation of mast cells” value in [4] is recorded as “able to cause degranulation”. For the substance FNWYVDGVQVHNAKTK, the “inhibition of C1-mediated hemolysis” value on C1 is “less active”. GVQVHNAKTK: the “inhibition of C1-mediated hemolysis” value in the assay with C1 was “approximately as active as inhibitors as intact monomeric IgG”. Turning to VFSRLEVTRAE, the “binding of 125I-human IgG to mouse macrophages” value in assay [5] is on record as “marked enhancement”. “Thr-Lys-Pro-Arg (TKPR; printed: Thr-Lys-Pro-Arg) [Tuftsin]”: the “inhibition of C1-mediated hemolysis” value in the assay with C1 is reported as “less active”. In assay [6], the “blocking of human IgG binding to human monocyte IgG Fc receptors” value was “competitively inhibits”. Also, the stimulation of phagocytosis result in assay [7] is recorded as “active at nanomolar concentrations”. “PDARHS [Pro--Asp--Ala--Arg--His--Ser, Pro-Asp-Ala-Arg-His-Ser]”: in assay [8], the “Rosette inhibition expressed as percent inhibition by monomeric IgE; monocyte/macrophage Fc receptor, IgE” value amounted to 87%. The “Rosette inhibition expressed as percent inhibition by monomeric IgG; lymphocyte Fc receptor, IgG” value in assay [9] was 95%. For the same substance, the “Rosette inhibition expressed as percent inhibition by monomeric IgE; lymphocyte Fc receptor, IgE” value in assay [10] came to 98%. Moreover, the “Rosette inhibition expressed as percent inhibition by monomeric IgE; basophil Fc receptor, IgE” value at BASOPHIL Fc Receptor IgE worked out at 101%.

Turning to “Val-Gln-Val-His-Asn-Ala-Lys-Thr-Lys-Pro-Arg-OH (VQVHNAKTKPR-OH)”, the “inhibition of C1-mediated hemolysis” value with C1 is reported as “approximately as active as inhibitors as intact monomeric IgG”. QYDSTYR: the “blocking of human IgG binding to human monocyte IgG Fc receptors” value in [6] is “could slightly block”. For “Gly-Gln-Pro-Arg (GQPR; printed: Gly-Gln-Pro-Arg) [Rigin]”, the stimulation of phagocytosis result in assay [7] is listed as “phagocytosis-stimulating abilities similar to those of Tuftsin”.
